The experiment addresses SREBP-2 (Homo sapiens (Human), UniProt Q12772). Put plainly: In vitro assay SREBP-2: PathHunter U2OS SREBP-2 Nuclear Translocation Cell Line, U18666A-stimulated. It counts as cell-based. The note with it: PathHunter U2OS SREBP-2 nuclear translocation cells, U18666A 10 μM, overnight (16 hours).

Here are results for 22 molecules from patent US20230340011A1 (Asteroid Therapeutics, priority 2022, published 2023).

Some results are limits rather than exact numbers.

Broadly, the IC50 is the concentration that gives 50% inhibition. Read a low IC50 as greater potency in that assay.

In the case of `CNC(=O)c1ccc(O[C@@H](C)[C@H]2CC[C@H]3[C@@H]4CC=C5C[C@@H](O)CC[C@]5(C)[C@H]4CC[C@]23C)cn1` [Example 438, 5-((S)-1-((3S,8S,9S,10R,13S,14S,17S)-3-hydroxy-10,13-dimethyl-2,3,4,7,8,9,10,11,12,13,14,15,16,17-tetradecahydro-1H-cyclopenta[a]phenanthren-17-yl)ethoxy)-N-methylpicolinamide], the IC50 lay within 250 to 1000 nM.
The value for `Cc1cccc(OC[C@@H](C)[C@H]2CC[C@H]3[C@@H]4CC=C5C[C@@H](O)CC[C@]5(C)[C@H]4CC[C@]23C)n1` [Example 440, (1R,3aS,3bS,7S,9aR,9bS,11aS)-9a,11a-dimethyl-1-[(2S)-1-[(6-methylpyridin-2-yl)oxy]propan-2-yl]-1H,2H,3H,3aH,3bH,4H,6H,7H,8H,9H,9aH,9bH,10H,11H,11aH-cyclopenta[a]phenanthren-7-ol] was 250 to 1000 nM.
`Cc1ccc(OC[C@@H](C)[C@H]2CC[C@H]3[C@@H]4CC=C5C[C@@H](O)CC[C@]5(C)[C@H]4CC[C@]23C)nc1` [Example 441, (3S,8S,9S,10R,13S,14S,17R)-10,13-dimethyl-17-((S)-1-((5-methylpyridin-2-yl)oxy)propan-2-yl)-2,3,4,7,8,9,10,11,12,13,14,15,16,17-tetradecahydro-1H-cyclopenta[a]phenanthren-3-ol] yielded an IC50 of 250 to 1000 nM.
Next, `Cc1ccnc(OC[C@@H](C)[C@H]2CC[C@H]3[C@@H]4CC=C5C[C@@H](O)CC[C@]5(C)[C@H]4CC[C@]23C)c1` [Example 442, (1R,3aS,3bS,7S,9aR,9bS,11aS)-9a,11a-dimethyl-1-[(2S)-1-[(4-methylpyridin-2-yl)oxy]propan-2-yl]-1H,2H,3H,3aH,3bH,4H,6H,7H,8H,9H,9aH,9bH,10H,11H,11aH-cyclopenta[a]phenanthren-7-ol]: under 250 nM.
The value for `Cc1cccnc1OC[C@@H](C)[C@H]1CC[C@H]2[C@@H]3CC=C4C[C@@H](O)CC[C@]4(C)[C@H]3CC[C@]12C` [Example 443, (3S,8S,9S,10R,13S,14S,17R)-10,13-dimethyl-17-((S)-1-((3-methylpyridin-2-yl)oxy)propan-2-yl)-2,3,4,7,8,9,10,11,12,13,14,15,16,17-tetradecahydro-1H-cyclopenta[a]phenanthren-3-ol] was under 250 nM; that for `C[C@H](COc1cccc(CO)n1)[C@H]1CC[C@H]2[C@@H]3CC=C4C[C@@H](O)CC[C@]4(C)[C@H]3CC[C@]12C` [Example 444, (3S,8S,9S,10R,13S,14S,17R)-17-((S)-1-((6-(hydroxymethyl)pyridin-2-yl)oxy)propan-2-yl)-10,13-dimethyl-2,3,4,7,8,9,10,11,12,13,14,15,16,17-tetradecahydro-1H-cyclopenta[a]phenanthren-3-ol] was under 250 nM.
Next, `C[C@H](COc1ccc(CO)cn1)[C@H]1CC[C@H]2[C@@H]3CC=C4C[C@@H](O)CC[C@]4(C)[C@H]3CC[C@]12C` [Example 445, (3S,8S,9S,10R,13S,14S,17R)-17-((S)-1-((5-(hydroxymethyl)pyridin-2-yl)oxy)propan-2-yl)-10,13-dimethyl-2,3,4,7,8,9,10,11,12,13,14,15,16,17-tetradecahydro-1H-cyclopenta[a]phenanthren-3-ol]: 250 to 1000 nM; `C[C@H](COc1cc(CO)ccn1)[C@H]1CC[C@H]2[C@@H]3CC=C4C[C@@H](O)CC[C@]4(C)[C@H]3CC[C@]12C` [Example 446, (3S,8S,9S,10R,13S,14S,17R)-17-((S)-1-((4-(hydroxymethyl)pyridin-2-yl)oxy)propan-2-yl)-10,13-dimethyl-2,3,4,7,8,9,10,11,12,13,14,15,16,17-tetradecahydro-1H-cyclopenta[a]phenanthren-3-ol]: under 250 nM.
`CNC(=O)c1cccc(OC[C@@H](C)[C@H]2CC[C@H]3[C@@H]4CC=C5C[C@@H](O)CC[C@]5(C)[C@H]4CC[C@]23C)n1` [Example 448, 6-((S)-2-((3S,8S,9S,10R,13S,14S,17R)-3-hydroxy-10,13-dimethyl-2,3,4,7,8,9,10,11,12,13,14,15,16,17-tetradecahydro-1H-cyclopenta[a]phenanthren-17-yl)propoxy)-N-methylpicolinamide] came in with an IC50 of 250 to 1000 nM.
`CNC(=O)c1ccc(OC[C@@H](C)[C@H]2CC[C@H]3[C@@H]4CC=C5C[C@@H](O)CC[C@]5(C)[C@H]4CC[C@]23C)nc1` [Example 449, 6-((S)-2-((3S,8S,9S,10R,13S,14S,17R)-3-hydroxy-10,13-dimethyl-2,3,4,7,8,9,10,11,12,13,14,15,16,17-tetradecahydro-1H-cyclopenta[a]phenanthren-17-yl)propoxy)-N-methylnicotinamide] displayed an IC50 of under 250 nM.
The value for `CNC(=O)c1ccnc(OC[C@@H](C)[C@H]2CC[C@H]3[C@@H]4CC=C5C[C@@H](O)CC[C@]5(C)[C@H]4CC[C@]23C)c1` [Example 450, 2-((S)-2-((3S,8S,9S,10R,13S,14S,17R)-3-hydroxy-10,13-dimethyl-2,3,4,7,8,9,10,11,12,13,14,15,16,17-tetradecahydro-1H-cyclopenta[a]phenanthren-17-yl)propoxy)-N-methylisonicotinamide] was under 250 nM; that for `CNC(=O)c1cccnc1OC[C@@H](C)[C@H]1CC[C@H]2[C@@H]3CC=C4C[C@@H](O)CC[C@]4(C)[C@H]3CC[C@]12C` [Example 451, 2-((S)-2-((3S,8S,9S,10R,13S,14S,17R)-3-hydroxy-10,13-dimethyl-2,3,4,7,8,9,10,11,12,13,14,15,16,17-tetradecahydro-1H-cyclopenta[a]phenanthren-17-yl)propoxy)-N-methylnicotinamide] was under 250 nM.
In turn, `C[C@H](CCc1ncccc1C(C)(C)O)[C@H]1CC[C@H]2[C@@H]3CC=C4C[C@@H](O)CC[C@]4(C)[C@H]3CC[C@]12C` [Example 456, (3S,8S,9S,10R,13R,14S,17R)-17-((R)-4-(3-(2-hydroxypropan-2-yl)pyridin-2-yl)butan-2-yl)-10,13-dimethyl-2,3,4,7,8,9,10,11,12,13,14,15,16,17-tetradecahydro-1H-cyclopenta[a]phenanthren-3-ol] returned a 50% inhibitory concentration (IC50) of under 250 nM.
Molecule `CCOc1cccnc1CC[C@@H](C)[C@H]1CC[C@H]2[C@@H]3CC=C4C[C@@H](O)CC[C@]4(C)[C@H]3CC[C@]12C` [Example 457, (1R,3aS,3bS,7S,9aR,9bS,11aR)-1-[(2R)-4-(3-ethoxypyridin-2-yl)butan-2-yl]-9a,11a-dimethyl-1H,2H,3H,3aH,3bH,4H,6H,7H,8H,9H,9aH,9bH,10H,11H,11aH-cyclopenta[a]phenanthren-7-ol] displayed an IC50 of under 250 nM.
The value for `CC(=N)N1CCN(C(=O)CC[C@@H](C)[C@H]2CC[C@H]3[C@@H]4CC=C5C[C@@H](O)CC[C@]5(C)[C@H]4CC[C@]23C)CC1` [Example 459, (R)-4-((3S,8S,9S,10R,13R,14S,17R)-3-hydroxy-10,13-dimethyl-2,3,4,7,8,9,10,11,12,13,14,15,16,17-tetradecahydro-1H-cyclopenta[a]phenanthren-17-yl)-1-(4-(1-iminoethyl)piperazin-1-yl)pentan-1-one] was 250 to 1000 nM.
Next, `C[C@H](OC(=O)N(C)C)[C@H]1CC[C@H]2[C@@H]3CC=C4C[C@@H](O)CC[C@]4(C)[C@H]3CC[C@]12C` [Example 461, (1S)-1-[(1S,3aS,3bS,7S,9aR,9bS,11aS)-7-hydroxy-9a,11a-dimethyl-1H,2H,3H,3aH,3bH,4H,6H,7H,8H,9H,9aH,9bH,10H,11H,11aH-cyclopenta[a]phenanthren-1-yl]ethyl N,N-dimethylcarbamate]: 250 to 1000 nM; `COC(=O)NC[C@@H](C)[C@H]1CC[C@H]2[C@@H]3CC=C4C[C@@H](O)CC[C@]4(C)[C@H]3CC[C@]12C` [Example 463, methyl ((S)-2-((3S,8S,9S,10R,13S,14S,17R)-3-hydroxy-10,13-dimethyl-2,3,4,7,8,9,10,11,12,13,14,15,16,17-tetradecahydro-1H-cyclopenta[a]phenanthren-17-yl)propyl)carbamate]: 250 to 1000 nM; `CNC(=O)NC[C@@H](C)[C@H]1CC[C@H]2[C@@H]3CC=C4C[C@@H](O)CC[C@]4(C)[C@H]3CC[C@]12C` [Example 464, 1-((S)-2-((3S,8S,9S,10R,13S,14S,17R)-3-hydroxy-10,13-dimethyl-2,3,4,7,8,9,10,11,12,13,14,15,16,17-tetradecahydro-1H-cyclopenta[a]phenanthren-17-yl)propyl)-3-methylurea]: 250 to 1000 nM.
The value for `COC(=O)N1CCN(C(=O)OC[C@@H](C)[C@H]2CC[C@H]3[C@@H]4CC=C5C[C@@H](O)CC[C@]5(C)[C@H]4CC[C@]23C)CC1` [Example 465, 1-(2S)-2-[(1R,3aS,3bS,7S,9aR,9bS,11aS)-7-hydroxy-9a,11a-dimethyl-1H,2H,3H,3aH,3bH,4H,6H,7H,8H,9H,9aH,9bH,10H,11H,11aH-cyclopenta[a]phenanthren-1-yl]propyl 4-methyl piperazine-1,4-dicarboxylate] was under 250 nM.
As for `COC(=O)N1CCN(C(=O)O[C@@H](C)[C@H]2CC[C@H]3[C@@H]4CC=C5C[C@@H](O)CC[C@]5(C)[C@H]4CC[C@]23C)CC1` [Example 466, 1-(1S)-1-[(1S,3aS,3bS,7S,9aR,9bS,11aS)-7-hydroxy-9a,11a-dimethyl-1H,2H,3H,3aH,3bH,4H,6H,7H,8H,9H,9aH,9bH,10H,11H,11aH-cyclopenta[a]phenanthren-1-yl]ethyl 4-methyl piperazine-1,4-dicarboxylate], the 50% inhibitory concentration (IC50) was in the range of 250 to 1000 nM.
In turn, `COC(=O)N1CCN(C(=O)NC[C@@H](C)[C@H]2CC[C@H]3[C@@H]4CC=C5C[C@@H](O)CC[C@]5(C)[C@H]4CC[C@]23C)CC1` [Example 467, Methyl 4-(((S)-2-((3S,8S,9S,10R,13S,14S,17R)-3-hydroxy-10,13-dimethyl-2,3,4,7,8,9,10,11,12,13,14,15,16,17-tetradecahydro-1H-cyclopenta[a]phenanthren-17-yl)propyl)carbamoyl)piperazine-1-carboxylate] gave an IC50 of under 250 nM.
`C[C@H](CCC(=O)N1CCC([C@H](O)C(F)(F)F)CC1)[C@H]1CC[C@H]2[C@@H]3CC=C4C[C@@H](O)CC[C@]4(C)[C@H]3CC[C@]12C` [Example 468, (4R)-4-[(1R,3aS,3bS,7S,9aR,9bS,11aR)-7-hydroxy-9a,11a-dimethyl-1H,2H,3H,3aH,3bH,4H,6H,7H,8H,9H,9aH,9bH,10H,11H,11aH-cyclopenta[a]phenanthren-1-yl]-1-{4-[(1 S)-2,2,2-trifluoro-1-hydroxyethyl]piperidin-1-yl}pentan-1-one] gave an IC50 of under 250 nM.
